Assay results as given in ChEMBL document CHEMBL1131205, “Rational design and synthesis of novel, potent bis-phenylamidine carboxylate factor Xa inhibitors” (J Med Chem, 1998).

Legend:
Coagulation factor X = Coagulation factor X (Homo sapiens, UniProt P00742); test: In vitro inhibition of Coagulation factor X
Prothrombin = Prothrombin (Homo sapiens, UniProt P00734); test: In vitro inhibition of thrombin
Serine protease 1 = Serine protease 1 (Homo sapiens, UniProt P07477); test: In vitro inhibition of trypsin
Serine protease 1, sequence (P07477 whole entry): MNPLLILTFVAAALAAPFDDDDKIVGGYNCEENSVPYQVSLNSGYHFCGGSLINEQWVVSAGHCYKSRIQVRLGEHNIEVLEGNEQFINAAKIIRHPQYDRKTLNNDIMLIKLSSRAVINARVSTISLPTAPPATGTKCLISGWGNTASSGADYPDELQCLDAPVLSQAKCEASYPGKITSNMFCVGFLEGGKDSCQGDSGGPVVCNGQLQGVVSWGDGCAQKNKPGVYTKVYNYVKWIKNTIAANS

Coagulation factor X, sequence (P00742 41-179 limits assumed): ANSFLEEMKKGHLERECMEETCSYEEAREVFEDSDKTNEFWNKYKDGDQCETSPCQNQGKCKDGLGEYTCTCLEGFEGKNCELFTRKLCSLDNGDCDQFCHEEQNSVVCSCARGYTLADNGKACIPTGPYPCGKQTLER
Coagulation factor X, sequence (P00742 235-488 limits assumed): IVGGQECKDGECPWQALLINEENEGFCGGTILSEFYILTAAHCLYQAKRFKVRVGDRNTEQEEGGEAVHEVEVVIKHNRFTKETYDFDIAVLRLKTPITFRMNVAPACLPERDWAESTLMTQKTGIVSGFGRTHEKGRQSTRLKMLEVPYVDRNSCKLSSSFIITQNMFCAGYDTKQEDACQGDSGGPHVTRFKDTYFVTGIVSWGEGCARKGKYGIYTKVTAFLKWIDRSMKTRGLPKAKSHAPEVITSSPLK

Row | Structure (SMILES) | Ki (Coagulation factor X) [nM] | Ki (Prothrombin) [nM] | Ki (Serine protease 1) [nM]
1 | COC(=O)CNC(=O)CC(CCc1ccc(C(=N)N)cc1)c1cccc(C(=N)N)c1 (centres undefined) | 2400 | 12600 | –
2 | CCOC(=O)CC(CCc1ccc(C(=N)N)cc1)c1cccc(C(=N)N)c1 (centres undefined) | 42 | 1100 | 110
3 | COC(=O)CC(CCc1ccc(C(=O)OC)cc1)c1cccc(C(=N)N)c1 (centres undefined) | 2800 | 3600 | 330
4 | CNC(=O)CC(CCc1ccc(C(=N)N)cc1)c1cccc(C(=N)N)c1 (centres undefined) | 940 | 8000 | 820
5 | COC(=O)CC(CCc1ccc(N)cc1)c1cccc(C(=N)N)c1 (centres undefined) | 5000 | 7700 | 1200
6 | N=C(N)c1ccc(CCC(CC(=O)N2CCCC2)c2cccc(C(=N)N)c2)cc1 (centres undefined) | 1150 | 2800 | 440
7 | CCOC(=O)CC(CCc1ccc(C(=N)N)cc1)c1ccccc1 (centres undefined) | > 30000 | 6200 | –
8 | COC(=O)CC(CCc1ccc(NS(=O)(=O)c2ccccc2)cc1)c1cccc(C(=N)N)c1 (centres undefined) | 1100 | 1750 | 610
9 | CC(C)OC(=O)CC(CCc1ccc(C(=N)N)cc1)c1cccc(C(=N)N)c1 (centres undefined) | 192 | 1540 | 140

Continued, values first:

Row | Ki (Coagulation factor X) [nM] | Ki (Prothrombin) [nM] | Ki (Serine protease 1) [nM] | Structure (SMILES)
10 | 550 | 6500 | 870 | COC(=O)CC(CCc1ccc(C(N)=O)cc1)c1cccc(C(=N)N)c1 (centres undefined)
11 | 9 | 3100 | 96 | COC(=O)CC(CCc1ccc(N=C(N)N)cc1)c1cccc(C(=N)N)c1 (centres undefined)
12 | 2800 | 8500 | – | COC(=O)CC(CCc1cccc(C(=N)N)c1)c1cccc(C(=N)N)c1 (centres undefined)
13 | 22900 | 1200 | – | CCOC(=O)CC(CCc1ccc(C(=N)N)cc1)c1ccc(C(=N)N)cc1 (centres undefined)
14 | 34 | 1200 | 99 | COC(=O)CC(CCc1ccc(C(=N)N)cc1)c1cccc(C(=N)N)c1 (centres undefined)
15 | 5100 | 4400 | – | N=C(N)c1ccc(CCC(=O)c2cccc(C(=N)N)c2)cc1
16 | 1640 | 3430 | – | CCOC(=O)CC(CCc1cccc(C(=N)N)c1)c1ccc(C(=N)N)cc1 (centres undefined)
17 | – | > 4200 | > 1200 | N=C(N)c1ccc(CCC(CC(=O)O)c2cccc(C(=N)N)c2)cc1 (centres undefined)
18 | 2400 | 19600 | – | CONC(=O)CC(CCc1ccc(C(=N)N)cc1)c1cccc(C(=N)N)c1 (centres undefined)
19 | 57 | 3300 | 760 | COC(=O)CC(CCCCc1ccc(N=C(N)N)cc1)c1cccc(C(=N)N)c1 (centres undefined)
20 | 2900 | > 2100 | – | CCOC(=O)CC(CCc1ccccc1)c1cccc(C(=N)N)c1 (centres undefined)
21 | 654 | 3100 | 110 | COC(=O)CC(CCc1ccc(NS(C)(=O)=O)cc1)c1cccc(C(=N)N)c1 (centres undefined)
